From US20250154597A1, “TRANSCRIPTIONAL REPROGRAMMING DIFFERENTIATES ACTIVE FROM INACTIVE ESR1 FUSIONS IN ENDOCRINE THERAPY-REFRACTORY METASTATIC BREAST CANCER” (Baylor College of Medicine, priority 2021, published 2025) come the findings set out here.

Test [1] addresses T1, WT ERα protein (Homo sapiens, UniProt P03372).
T1 sequence (P03372 1-595): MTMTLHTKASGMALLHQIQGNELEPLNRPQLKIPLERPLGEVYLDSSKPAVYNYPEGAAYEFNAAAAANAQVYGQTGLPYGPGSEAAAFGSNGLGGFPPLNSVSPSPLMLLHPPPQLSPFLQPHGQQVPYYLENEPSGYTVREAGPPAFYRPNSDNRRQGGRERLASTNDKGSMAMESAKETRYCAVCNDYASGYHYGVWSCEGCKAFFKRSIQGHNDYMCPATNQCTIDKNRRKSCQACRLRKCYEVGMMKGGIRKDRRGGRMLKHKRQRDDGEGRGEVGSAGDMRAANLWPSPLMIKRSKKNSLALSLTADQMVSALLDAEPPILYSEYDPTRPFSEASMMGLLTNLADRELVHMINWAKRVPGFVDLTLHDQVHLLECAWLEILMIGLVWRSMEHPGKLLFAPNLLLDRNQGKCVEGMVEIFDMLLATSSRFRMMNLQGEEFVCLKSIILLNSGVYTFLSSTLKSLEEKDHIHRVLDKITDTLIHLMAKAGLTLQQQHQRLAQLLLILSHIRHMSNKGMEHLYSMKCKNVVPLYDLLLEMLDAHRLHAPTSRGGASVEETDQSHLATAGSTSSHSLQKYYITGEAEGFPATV
Nature of the test: Immunoblotting of endogenous WT ERα after fulvestrant treatment. Format: cell-based. Particulars: 100 nM fulvestrant; hormone-deprived stable T47D and MCF7 cells. A general note: In western blotting, separated proteins are transferred to a membrane and probed.

Test [2] concerns T47D cells expressing active ESR1 fusion proteins. As to the kind of experiment: Expression of estrogen response and EMT-related genes (RT-qPCR, immunoblotting). Format: cell-based. Particulars: 100 nM fulvestrant; E2-deprived T47D cells. Here is the method: (§1) Immunoblotting and immunoprecipitation—Cells were harvested and whole cell lysates were prepared in RIPA lysis buffer as described (7) or in MIB lysis buffer (10) supplemented with 1× protease inhibitors and 1× phosphatase inhibitors (Roche) by sonication for 2 minutes. To make ER+ PDX tumor lysates, frozen PDX tumors were cryopulverized with a Covaris CP02 Pulverizer and then protein was extracted in MIB lysis buffer with sonication. Protein concentration determination and SDS-PAGE ([…] protein per lane) were performed as described (7). Immunoblotting of nitrocellulose membranes was performed as described (7). Primary and HRP-conjugated secondary antibodies employed are listed in the Supplementary information.
Reverse transcription-quantitative PCR (RT-qPCR)—RNA was isolated from hormone-deprived stable T47D cells as above with concentration determined using a NanoDrop spectrophotometer. […]
To define the transcriptional profile driven by active ESR1 fusion proteins, RNA-Seq was performed on T47D cells expressing these ESR1 fusion cDNAs as well as control (YFP, ESR1-e6, and ESR1-WT) cells in the presence and absence of E2. […] The expression of three canonical estrogen response genes in stably transfected T47D cells were validated using reverse transcription-quantitative PCR (RT-qPCR). […]
On the technique in general: Real-time PCR tracks product formation cycle by cycle.

The test system of test [3] is ESR1 fusion protein. As to the kind of experiment: Immunoblotting of ESR1 fusion proteins after fulvestrant treatment. Particulars: 100 nM fulvestrant; hormone-deprived stable T47D and MCF7 cells. Format: cell-based. The protocol: as §1
(§2) To characterize each chimeric ESR1 fusion protein, HA-tagged cDNA constructs were expressed in two ER+ breast cancer cell lines (T47D and MCF7) by lentiviral transduction. Stable cell lines expressing yellow fluorescent protein (YFP) were generated as negative controls. Truncated ESR1 (ESR1-e6 protein) and wild-type ESR1 (ESR1-WT protein) were also stably expressed to provide over-expression controls (FIGS. 2A and 2D). When cells were treated with 100 nM fulvestrant, a selective ERα degrader that inhibits endogenous ERα (21), the level of ESR1 fusion protein was predictably unaffected. […] Cell growth was measured using an alamarBlue assay. […]

The subject of test [4] is T47D cells. Nature of the test: Cell growth, alamarBlue assay. Format: cell-based. Particulars: 100 nM fulvestrant, 7-10 days. The protocol: Cell growth, motility and invasion assays—Cell growth assays of different ESR1 fusion protein expressing breast cancer cells that were first hormone-deprived and then subsequently treated either with 100 nM fulvestrant in the presence or absence of 10 nM E2 for 7-10 days were performed in 96-well plates using an alamarBlue™ assay as described (7). Cell growth reading values were normalized to that of control YFP cells, −E2.
as §2, with “unaffected. In comparison, the WT ERα protein was reliably degraded, providing an endogenous control for fulvestrant activity (FIGS. 2A and 2D).” for “unaffected.”

Test [5] addresses T2, ESR1-e6>YAP1 fusion protein, C-terminal HA-tagged (UniProt P03372 1-365; P46937 230-504, limits assumed).
T2 construct: Stably expressed in T47D cells by lentiviral transduction; also called ESR1-YAP1; not shown: C-terminal HA tag
As to the kind of experiment: co-immunoprecipitation: anti-HA IP from hormone-deprived T47D cell lysates with or without 100 nM E2, blot with C-terminal ERα antibody.

Test [6] concerns the target T3, ESR1-e6>PCDH11X fusion protein, C-terminal HA-tagged (UniProt P03372 1-365; Q9BZA7 1013-1347, limits assumed).
T3 construct: Stably expressed in T47D cells by lentiviral transduction; not shown: C-terminal HA tag
T3 sequence (looked up): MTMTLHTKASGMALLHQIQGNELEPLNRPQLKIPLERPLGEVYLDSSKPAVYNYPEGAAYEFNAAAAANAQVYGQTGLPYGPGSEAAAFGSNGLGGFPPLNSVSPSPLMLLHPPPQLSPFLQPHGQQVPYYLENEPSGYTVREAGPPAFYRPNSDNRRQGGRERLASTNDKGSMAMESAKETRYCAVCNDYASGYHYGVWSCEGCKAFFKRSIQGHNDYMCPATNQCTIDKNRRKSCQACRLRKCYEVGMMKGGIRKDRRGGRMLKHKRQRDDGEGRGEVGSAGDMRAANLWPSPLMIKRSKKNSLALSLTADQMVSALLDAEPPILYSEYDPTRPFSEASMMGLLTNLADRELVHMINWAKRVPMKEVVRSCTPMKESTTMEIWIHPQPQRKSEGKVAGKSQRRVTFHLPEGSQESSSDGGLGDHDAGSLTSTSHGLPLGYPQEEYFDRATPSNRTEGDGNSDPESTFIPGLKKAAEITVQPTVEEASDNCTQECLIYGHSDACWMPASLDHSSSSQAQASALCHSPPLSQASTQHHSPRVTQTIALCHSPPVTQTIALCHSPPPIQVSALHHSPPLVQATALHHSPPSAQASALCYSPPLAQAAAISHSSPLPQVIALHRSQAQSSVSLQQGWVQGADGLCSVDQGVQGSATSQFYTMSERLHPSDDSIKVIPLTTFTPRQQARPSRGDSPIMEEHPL
The description is as above.

For test [7], the target named is T4, ESR1-e6>SOX9 fusion protein, HA-tagged (UniProt P03372 1-365; P48436 229-509, limits assumed).
T4 construct: Stably expressed in T47D cells by lentiviral transduction; not shown: HA tag (constructed in a similar fashion to the C-terminal HA-tagged constructs)
T4 sequence (looked up): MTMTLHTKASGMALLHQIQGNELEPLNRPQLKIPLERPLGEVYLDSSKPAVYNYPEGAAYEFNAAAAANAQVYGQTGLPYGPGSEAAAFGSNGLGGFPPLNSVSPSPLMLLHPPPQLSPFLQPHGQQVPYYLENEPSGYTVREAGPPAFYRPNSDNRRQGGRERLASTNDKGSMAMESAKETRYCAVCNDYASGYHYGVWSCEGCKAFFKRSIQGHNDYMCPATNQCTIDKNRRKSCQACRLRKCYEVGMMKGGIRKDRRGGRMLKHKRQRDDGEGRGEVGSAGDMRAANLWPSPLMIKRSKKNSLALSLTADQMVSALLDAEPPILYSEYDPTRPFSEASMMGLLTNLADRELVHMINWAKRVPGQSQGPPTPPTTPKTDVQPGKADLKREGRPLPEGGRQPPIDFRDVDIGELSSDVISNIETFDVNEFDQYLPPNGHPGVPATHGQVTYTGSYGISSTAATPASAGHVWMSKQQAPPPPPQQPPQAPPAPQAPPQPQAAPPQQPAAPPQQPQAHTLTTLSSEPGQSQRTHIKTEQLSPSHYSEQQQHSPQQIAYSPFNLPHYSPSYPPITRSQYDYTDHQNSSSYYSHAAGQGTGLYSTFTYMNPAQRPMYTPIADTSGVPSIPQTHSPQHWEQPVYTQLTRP
The description is as above.

For `C[C@]12CC[C@@H]3c4ccc(O)cc4C[C@@H](CCCCCCCCC[S+]([O-])CCCC(F)(F)C(F)(F)F)[C@H]3[C@@H]1CC[C@@H]2O` (stereo partly shown) [fulvestrant], in test [1], the “level of WT ERα protein” value is listed as “degraded”. For the same molecule, the “expression of estrogen response and EMT-related genes induced by active ESR1 fusion proteins” value in test [2] is on record as “unaffected”. Moreover, the “level of ESR1 fusion protein” value in test [3] was “unaffected”. Further, the “E2-independent growth of T47D cells expressing ESR1-e6>YAP1, >PCDH11X, >SOX9, >ARNT2-e18” value in test [4] is on record as “uniformly resistant to fulvestrant”.

B1: endogenously expressed ERα (wild-type estrogen receptor alpha, encoded by ESR1) (receptor, UniProt P03372 1-595, looked up)
chain: MTMTLHTKASGMALLHQIQGNELEPLNRPQLKIPLERPLGEVYLDSSKPAVYNYPEGAAYEFNAAAAANAQVYGQTGLPYGPGSEAAAFGSNGLGGFPPLNSVSPSPLMLLHPPPQLSPFLQPHGQQVPYYLENEPSGYTVREAGPPAFYRPNSDNRRQGGRERLASTNDKGSMAMESAKETRYCAVCNDYASGYHYGVWSCEGCKAFFKRSIQGHNDYMCPATNQCTIDKNRRKSCQACRLRKCYEVGMMKGGIRKDRRGGRMLKHKRQRDDGEGRGEVGSAGDMRAANLWPSPLMIKRSKKNSLALSLTADQMVSALLDAEPPILYSEYDPTRPFSEASMMGLLTNLADRELVHMINWAKRVPGFVDLTLHDQVHLLECAWLEILMIGLVWRSMEHPGKLLFAPNLLLDRNQGKCVEGMVEIFDMLLATSSRFRMMNLQGEEFVCLKSIILLNSGVYTFLSSTLKSLEEKDHIHRVLDKITDTLIHLMAKAGLTLQQQHQRLAQLLLILSHIRHMSNKGMEHLYSMKCKNVVPLYDLLLEMLDAHRLHAPTSRGGASVEETDQSHLATAGSTSSHSLQKYYITGEAEGFPATV
notes: also called WT ERα; endogenous ERα
B1: the binding result in test [5], in test [6] and in test [7] was “no binding” in each case.
